Reference: PubChem BioAssay AID1963840 (Molecular Pharmacology Branch, DTP, NCI, 2024)

System: 695427-040-R-J1-PDC complex spheroid viability
Experiment: Anticancer human tumor 695427-040-R-J1-PDC patient-derived colon adenocarcinoma cell line growth inhibition [POLQ]
Conditions: for IC50: curve of first compound; for viability, T/C: stronger effect = lower value
Experimental: Multicellular complex tumor spheroid response to Polymerase (POL) inhibitors (novobiocin, ART-558, RP6685) in combination with a variety of drugs and investigational agents in selected tumor cell lines
The POL inhibitors (novobiocin, ART-558, and RP6685) were evaluated both individually and in combination with standard of care and investigational anticancer small molecules within a complex spheroid model of solid tumors. . Complex spheroids include a stromal component modeled by human endothelial cells (HUVEC) and fibroblasts modeled by human mesenchymal stem cells (MSCs). The concentration ranges selected for each drug and investigational agent were based upon clinically achievable concentrations if the clinical Cmax of the agent was known.
Compounds. The drugs and investigational agents: novobiocin (NSC847541), ART-558 (NSC835418), RP-6685 (NSC848927), peposertib (NSC802822), ceralasertib (NSC780249), elimusertib (NSC800525), camonsertib (NSC841442), AZD-1390 (NSC803789), olaparib (NSC753686), talazoparib (NSC767125), rucaparib (NSC756644), sotorasib (NSC818433), MRTX-1133 (NSC836407), SN-38 (NSC673596), topotecan (NSC609699), epotoside (NSC141540), doxorubicin (NSC123127), gemcitabine (NSC613327), 5-fluorouracil (NSC19893), paclitaxel (NSC125973), vemurafenib (NSC761431), MSA-2 (NSC828583), SN-011 (NSC837082), adavosertib (NSC754352), prexasertib (NSC758257), carboplatin (NSC241240) and oxaliplatin (NSC266046), were obtained from the National Cancer Institute (NCI) Developmental Therapeutics Program Chemical Repository (21). The FDA-approved anticancer drug set is available from the Developmental Therapeutics Program at https://dtp.cancer.gov/organization/dscb/obtaining/. […] The stock solutions were prepared in dimethyl sulfoxide (DMSO, Sigma-Aldrich, St. Louis, MO, cat. D2650), except for the platinum compounds which were prepared in saline (Quality Biological, Gaithersburg, MD, cat. 114-055-101), at 800-fold the tested concentration and stored at -70 degrees C prior to their use. All drugs and investigational agents were tested over a range starting from a high concentration at or near the clinical Cmax and decreasing in half-log increments. If the clinical Cmax for an agent had not been determined, the highest concentration tested was 10 microM, except for SN-38, which was tested at a high concentration of 1 microM.
Cell Culture. All cells were maintained in an incubator at 37 degrees C and 5% CO2 with 95% humidity. The PDC lines were cultured according to standard operating procedures established by the NCI PDMR (https://pdmr.cancer.gov). Table 3 of the manuscript, lists the cell lines along with the number of the three cell types plated to form the mct-spheroids and media for tumor cell growth. After thawing, all PDC lines, except 997537-175-T-J1-PDC and 415267-285-R-J2-PDC, were cultured in Matrigel-coated flasks prepared with a working solution of 1X Ham's F-12 nutrient mix, without supplementation (Thermo Fisher Scientific, cat. 11765054), 100 U/mL penicillin-streptomycin (Thermo Fisher Scientific, cat. 15140122), and 2.5% Matrigel (Corning Inc., Corning, NY, cat. 354248) for the first three passages. The two PDC lines 997537-175-T-J1-PDC and 415267-285-R-J2-PDC were cultured on uncoated flasks. The 857933-349-R-J2-PDC line was cultured in 6C/Colon 1B media containing advanced DMEM/F-12 (Thermo Fisher Scientific, cat. 12634028), 10 mM HEPES (Thermo Fisher Scientific, cat. 15630080), 1X GlutaMAX supplement (Thermo Fisher Scientific, cat. 35050061), 0.1 mg/mL primocin (InvivoGen, San Diego, CA, cat. ant-pm-2), 10% defined fetal bovine serum, heat inactivated (HyClone Laboratories Inc., Logan, UT, cat. SH30070.03HI), 50% L-WRN conditioned media (ATCC, cat. CRL-3276), 1.25 mM N-Acetyl-L-cysteine (Sigma-Aldrich, cat. A9165), 10 mM nicotinamide (Sigma-Aldrich, cat. N0636), 1X B-27 supplement (Thermo Fisher Scientific, cat. 17504044), 1X N-2 supplement (Thermo Fisher Scientific, cat. […]
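Further: spheroids exposed to compounds for seven days.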
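Wherever viability, T/C is given: 100% = DMSO vehicle control viability.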

Structure (SMILES): CNCc1ccc(-c2[nH]c3cc(F)cc4c3c2CCNC4=O)cc1 + Nc1ccc(C#CCN(C(=O)Cc2ncc(C(F)(F)F)cc2C(F)(F)F)c2ccc(F)cc2)nn1
- IC50 (second compound 0.0316 µM): > 10 µM
- IC50 (second compound 0.1 µM): > 10 µM
- IC50 (second compound 0.316 µM): > 10 µM
- IC50 (second compound 1 µM): > 10 µM
- IC50 (second compound 3.16 µM): > 10 µM
- IC50 (second compound 10 µM): > 10 µM
- viability, T/C (second compound 0.0316 µM, first compound 0.0316 µM): 101%
- viability, T/C (second compound 0.0316 µM, first compound 0.1 µM): 101%
- viability, T/C (second compound 0.0316 µM, first compound 0.316 µM): 106%
- viability, T/C (second compound 0.0316 µM, first compound 1 µM): 108%
- viability, T/C (second compound 0.0316 µM, first compound 3.16 µM): 110%
- viability, T/C (second compound 0.0316 µM, first compound 10 µM): 107%
- viability, T/C (second compound 0.1 µM, first compound 0.0316 µM): 114%
- viability, T/C (second compound 0.1 µM, first compound 0.1 µM): 110%
- viability, T/C (second compound 0.1 µM, first compound 0.316 µM): 104%
- viability, T/C (second compound 0.1 µM, first compound 1 µM): 104%
- viability, T/C (second compound 0.1 µM, first compound 3.16 µM): 118%
- viability, T/C (second compound 0.1 µM, first compound 10 µM): 109%
- viability, T/C (second compound 0.316 µM, first compound 0.0316 µM): 119%
- viability, T/C (second compound 0.316 µM, first compound 0.1 µM): 102%
- viability, T/C (second compound 0.316 µM, first compound 0.316 µM): 96.1%
- viability, T/C (second compound 0.316 µM, first compound 1 µM): 104%
- viability, T/C (second compound 0.316 µM, first compound 3.16 µM): 115%
- viability, T/C (second compound 0.316 µM, first compound 10 µM): 104%
- viability, T/C (second compound 1 µM, first compound 0.0316 µM): 117%
- viability, T/C (second compound 1 µM, first compound 0.1 µM): 94%
- viability, T/C (second compound 1 µM, first compound 0.316 µM): 98.1%
- viability, T/C (second compound 1 µM, first compound 1 µM): 103%
- viability, T/C (second compound 1 µM, first compound 3.16 µM): 112%
- viability, T/C (second compound 1 µM, first compound 10 µM): 107%
- viability, T/C (second compound 3.16 µM, first compound 0.0316 µM): 103%
- viability, T/C (second compound 3.16 µM, first compound 0.1 µM): 111%
- viability, T/C (second compound 3.16 µM, first compound 0.316 µM): 97.2%
- viability, T/C (second compound 3.16 µM, first compound 1 µM): 112%
- viability, T/C (second compound 3.16 µM, first compound 3.16 µM): 113%
- viability, T/C (second compound 3.16 µM, first compound 10 µM): 118%
- viability, T/C (second compound 10 µM, first compound 0.0316 µM): 105%
- viability, T/C (second compound 10 µM, first compound 0.1 µM): 98.6%
- viability, T/C (second compound 10 µM, first compound 0.316 µM): 92.3%
- viability, T/C (second compound 10 µM, first compound 1 µM): 105%
- viability, T/C (second compound 10 µM, first compound 3.16 µM): 105%
- viability, T/C (second compound 10 µM, first compound 10 µM): 102%
